Experimental data reported in patent US20250059164A1, “IRAK DEGRADERS AND USES THEREOF” (Kymera Therapeutics, Inc., priority 2023, published 2025).

Biological target: T1, IRAK4 (Homo sapiens, UniProt Q9NWZ3)
T1 construct: endogenous in cells; host or cells: OCI-LY10
T1 sequence (Q9NWZ3 1-460): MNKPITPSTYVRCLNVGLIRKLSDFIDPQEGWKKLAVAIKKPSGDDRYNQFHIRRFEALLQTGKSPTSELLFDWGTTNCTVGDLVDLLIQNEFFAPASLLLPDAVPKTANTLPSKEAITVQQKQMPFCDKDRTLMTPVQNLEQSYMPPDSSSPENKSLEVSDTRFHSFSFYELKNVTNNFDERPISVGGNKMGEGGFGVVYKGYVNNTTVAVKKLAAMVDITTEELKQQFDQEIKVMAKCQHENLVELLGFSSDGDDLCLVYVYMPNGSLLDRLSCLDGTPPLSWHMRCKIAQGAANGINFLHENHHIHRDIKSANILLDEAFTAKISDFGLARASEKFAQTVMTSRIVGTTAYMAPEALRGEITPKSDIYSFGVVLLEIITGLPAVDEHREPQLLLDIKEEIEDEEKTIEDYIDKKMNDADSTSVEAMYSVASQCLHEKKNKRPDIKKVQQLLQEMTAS
Assay: IRAK4 MSD degradation in OCI-LY10
Format: cell-based
Conditions: OCI-LY10 cells, 24 hrs, Meso Scale Discovery
Protocol: Degradation of IRAK4 in OCI-LY10 was quantitatively measured using Meso Scale Discovery technology. […] Compounds were then added to the assay plates with a final top concentration of 1 to 10 μM in a 1:3 dilution series with total of 8 doses. The assay plates were then incubated for 4 to 24 hours at 37° C. under 5% CO2. […] To prepare MSD assay plates (Meso Scale Discovery Catalog number L15XA-3), the plates were coated with 2 μg/mL capture antibody (mouse Anti-IRAK4 antibody [2H9], ab119942) in PBS, at 40 μL/well. […] Cell lysates were then added to MSD assay plates and the plates were incubated at room temperature for 1 hour. The plates were then washed 3 times with 150 μL/well TBST buffer and 25 μL/well primary detection antibody (rabbit Anti-IRAK4 antibody [Y279], from Abcam. Catalog number ab32511, 1 μg/mL). The assay plates were then incubated at room temperature for 1 hour, washed 3 times with 150 μL/well TBST buffer and 25 μL/well secondary detection antibody, SULFO-TAG anti-rabbit antibody were added (anti-rabbit antibody from Meso Scale Discovery, Catalog number R32AB-1, 1 μg/mL). The assay plates were then incubated at room temperature for 1 hour, washed 3 times with 150 μL/well TBST buffer, and 150 μL/well MSD reading buffer (Meso Scale Discovery catalog number R92TC-2) was added. The plates were then analyzed by a MSD reader (Meso Scale Discovery, Model Quick Plex SQ 120). The data was then analyzed by software Prism 7.0 from GraphPad and the dose-depended IRAK4 degradation were fit using a three-parameter logistic equation to calculate DC50.
The letter codes for IRAK4 DC50 include: A (<0.01 μM); B (0.01 to <0.1 μM); C (0.1 to 0.2 μM); D (>0.2 μM) and E (not tested).

Compound	DC50
CN(C[C@H]1CC[C@H](c2cc3cc(NC(=O)c4cncc(C(F)(F)F)n4)ccn3n2)CC1)[C@H]1CCN(c2cccc3c2n(C)c(=O)n3C2CCC(=O)NC2=O)C[C@H]1F (single isomer, unassigned) [I-212]	10 to 100 nM
Cn1c(=O)n([C@@H]2CCC(=O)NC2=O)c2cccc(N3CCC4(CCN(C[C@H]5CC[C@H](n6cc7cc(NC(=O)c8cncc(C#N)c8)c(C(C)(C)O)cc7n6)CC5)CC4(F)F)CC3)c21 (single isomer, unassigned) [I-224]	< 10 nM
Cn1c(=O)n([C@H]2CCC(=O)NC2=O)c2cccc(N3CCC4(CCN(C[C@H]5CC[C@H](n6cc7cc(NC(=O)c8cncc(C#N)c8)c(C(C)(C)O)cc7n6)CC5)CC4(F)F)CC3)c21 (single isomer, unassigned) [I-225]	< 10 nM
Cn1nc([C@@H]2CCC(=O)NC2=O)c2cccc([C@@H]3CCN(C[C@H]4CC[C@H](n5cc6cc(NC(=O)c7cncc(C#N)c7)c(C(C)(C)O)cc6n5)CC4)CC3(F)F)c21 (single isomer, unassigned) [I-230]	< 10 nM
Cn1c(=O)n([C@H]2CCC(=O)NC2=O)c2ccc(F)c([C@@H]3CCN(C[C@H]4CC[C@H](n5cc6cc(NC(=O)c7cncc(C#N)c7)c(C(C)(C)O)cc6n5)CC4)CC3(F)F)c21 (single isomer, unassigned) [I-232]	< 10 nM
COc1ccc2c(c1N1CC3(CCN(C[C@H]4CC[C@H](n5cc6cc(NC(=O)c7cncc(C#N)c7)c(C(C)(C)O)cc6n5)CC4)CC3(F)F)C1)n(C)c(=O)n2[C@H]1CCC(=O)NC1=O (single isomer, unassigned) [I-234]	< 10 nM
COc1ccc2c(c1N1CC3(CCN(C[C@H]4CC[C@H](n5cc6cc(NC(=O)c7cncc(C#N)c7)c(C(C)(C)O)cc6n5)CC4)CC3(F)F)C1)n(C)c(=O)n2[C@@H]1CCC(=O)NC1=O (single isomer, unassigned) [I-235]	< 10 nM
Cn1c(=O)n([C@H]2CCC(=O)NC2=O)c2cccc([C@@H]3CCN(C[C@H]4CC[C@H](c5nc6cc(C(C)(C)O)c(NC(=O)c7cncc(C#N)c7)cc6s5)CC4)C[C@H]3F)c21 (single isomer, unassigned) [I-236]	< 10 nM
Cn1c(=O)n([C@@H]2CCC(=O)NC2=O)c2cccc([C@@H]3CCN(C[C@H]4CC[C@H](c5nc6cc(C(C)(C)O)c(NC(=O)c7cncc(C#N)c7)cc6s5)CC4)C[C@H]3F)c21 (single isomer, unassigned) [I-237]	< 10 nM
COc1cc2nn([C@H]3CC[C@H](CN4CC[C@@H](c5cccc6c5c(C)nn6C5CCC(=O)NC5=O)[C@H](F)C4)CC3)cc2cc1NC(=O)c1cncc(C#N)c1 (single isomer, unassigned) [I-265]	< 10 nM
CN(C[C@H]1CC[C@H](c2cn3cc(NC(=O)c4cncc(C(F)(F)F)n4)ccc3n2)CC1)[C@H]1CCN(c2cccc3c2n(C)c(=O)n3C2CCC(=O)NC2=O)C[C@H]1F (single isomer, unassigned) [I-285]	< 10 nM
COc1ccc2c(c1N1CC[C@H](N(C)C[C@H]3CC[C@H](n4cc(NC(=O)c5cnn6cccnc56)c(C(F)F)n4)CC3)C(F)(F)C1)n(C)c(=O)n2C1CCC(=O)NC1=O (single isomer, unassigned) [I-289]	< 10 nM
CN(C[C@H]1CC[C@H](c2cc3cc(NC(=O)c4cncc(C(F)(F)F)n4)ccn3n2)CC1)[C@@H]1CCN(c2cccc3c2n(C)c(=O)n3C2CCC(=O)NC2=O)C[C@H]1F (single isomer, unassigned) [I-291]	> 200 nM
CN(C[C@H]1CC[C@H](c2cc3cc(NC(=O)c4cncc(C(F)(F)F)n4)ccn3n2)CC1)[C@H]1CCN(c2cccc3c2n(C)c(=O)n3C2CCC(=O)NC2=O)C[C@@H]1F (single isomer, unassigned) [I-292]	10 to 100 nM
CN(C[C@H]1CC[C@H](c2nc3cc(C(C)(C)O)c(NC(=O)c4cncc(C(F)(F)F)n4)cc3o2)CC1)[C@H]1CCN(c2cccc3c2n(C)c(=O)n3C2CCC(=O)NC2=O)C[C@@H]1F (single isomer, unassigned) [I-298]	< 10 nM
